How the values were obtained:
[1] = Temporal change in oxidizing property (iodine titration method); format: physicochemical; conditions: 1% aqueous solution, 25° C., 700 days
Excerpt: After deaerating the obtained aqueous ozonized surfactant solution to remove dissolved ozone gas by helium purging, the oxidizing property of the aqueous ozonized surfactant solution can be determined by the iodine titration method (see Non Patent Literature 1). Whether or not the aqueous ozonized surfactant solution maintains a function as a surfactant can be evaluated by checking whether or not frothing, which is a characteristic of surfactants, occurs when the solution is agitated or vibrated.
Meanwhile, oxygen was supplied from an oxygen cylinder into an ozonizer (ozonizer GR-RB made by Sumitomo Precision Products Co., Ltd.) at an oxygen flow rate of 0.3 L/min to ozonize the oxygen to produce ozone gas. Then, the ozone gas was dissolved in the above-described aqueous solution in a dissolving module (SEK model made by ERC Technology), and the aqueous solution was circulated at a flow rate of 1 L/min. […] Further, in 30 minutes, the concentration increased to 25 ppm (see FIG. 2). After deaerating the aqueous solution that had undergone about 30-minute ozone treatment to remove dissolved ozone gas by helium purging, oxidizing property of the aqueous solution was determined by the iodine titration method. As a result, the aqueous solution had oxidizing property, and frothing, which is a characteristic of surfactants, was observed. The results confirmed that ozonized Tween 80 had been produced. Further, a temporal change in the oxidizing property of the aqueous solution was determined by the iodine titration method at 25° C. for 20 days. As a result, the percentage of oxidizing property measured after 20 days to that measured just after preparation was 109%.
The solution A was diluted to a 1% aqueous solution, and a temporal change in the oxidizing property of the aqueous solution was determined by the iodine titration method at 25° C. for 700 days. As a result, the percentage of oxidizing property measured after 700 days to that measured just after preparation was 101%.

[2] = tested on: Cladosporium cladosporioides; test: Minimum inhibitory concentration test; format: cell-based; conditions: 96 h, 25° C., 1 × 10^5/mL
Excerpt: (§1) In order to check the antimicrobial and antifungal performance of the ozonized surfactant, bacteriostatic and bactericidal effects of the ozonized surfactant against five kinds of microorganisms were examined. The five kinds of target microorganisms were Staphylococcus aureus as a prokaryotic gram-positive bacterium, Escherichia coli as a prokaryotic gram-negative bacterium, Saccharomyces cerevisiae and Trichophyton mentagrophytes as fungi which are eukaryotic microorganisms, and Cladosporium cladosporioides. One loopful of each strain was inoculated in a medium optimum for the strain, and cultured under culture conditions optimum for the strain to prepare a cell suspension for inoculation.
(§2) The solution A obtained in Example 4 was placed in test tubes, and was then diluted with sterilized water 2-, 4-, 8-, 16-, 32-, 64-, 128-, 256-, and 512-fold to prepare 10 levels of diluted ozonized surfactant solutions. Into L-shaped test tubes for a biophotorecorder, 9 mL of each medium shown in Table 1 was dispensed and sterilized by steam. Then, 1 mL of each of the 10 levels of diluted ozonized surfactant solutions was added aseptically to the L-shaped test tubes to prepare 10 mL of 10-, 20-, 40-, 80-, 160-, 320-, 640-, 1280-, 2560-, and 5120-fold diluted solutions of the solution A (hereinafter, referred to as a “graduated dilution series to be tested”). Into the graduated dilution series to be tested, 0.1 mL of the cell suspension for inoculation was inoculated (the initial number of cells of each microorganism is shown in Table 1). The L-shaped test tubes into which the cell suspension had been inoculated were set in a biophotorecorder (made by Advantec Toyo Kaisha, Ltd.) and subjected to shaking culture (30 rpm) under conditions shown in Table 1. The test tubes to be used were sterilized by dry heat (165° C. for 1 hour), and the media, sterilized water, and tools were sterilized by steam in an autoclave (121° C. for 15 minutes). In the following tests, they were sterilized in the same manner.
(§3) Another graduated dilution series was prepared between the temporary minimum inhibitory concentration and the concentration of the ozonized surfactant nearest to the temporary minimum inhibitory concentration, at which turbidity occurred. Then, the same operation as described above was again carried out. […] This MIC test against these five kinds of microorganisms was carried out also using, as a control, the surfactant solution before ozone treatment.

Escherichia coli [3] = test: Minimum inhibitory concentration test; format: cell-based; conditions: 24 h, 30° C., 1 × 10^7/mL
Excerpt: as §1, §2, §3

Saccharomyces cerevisiae [4] = test: Minimum inhibitory concentration test; format: cell-based; conditions: 48 h, 28° C., 1 × 10^6/mL
Excerpt: as §1, §2, §3

Staphylococcus aureus [5] = test: Minimum inhibitory concentration test; format: cell-based; conditions: 24 h, 37° C., 1 × 10^7/mL
Excerpt: as §1, §2, §3

[6] = tested on: Trichophyton mentagrophytes; test: Minimum inhibitory concentration test; format: cell-based; conditions: 96 h, 25° C., 1 × 10^5/mL
Excerpt: as §1, §2, §3

[7] = tested on: Cladosporium cladosporioides; test: Minimum bactericidal concentration test; format: cell-based; conditions: 96 h, 25° C.
Procedure: (§4) Here, the ozonized surfactant was diluted 100-fold, and therefore the ozonized surfactant was considered to be ineffective. […] [table]

Escherichia coli [8] = test: Minimum bactericidal concentration test; format: cell-based; conditions: 24 h, 30° C.
Procedure: as §4

Saccharomyces cerevisiae [9] = test: Minimum bactericidal concentration test; format: cell-based; conditions: 48 h, 28° C.
Procedure: as §4

Staphylococcus aureus [10] = test: Minimum bactericidal concentration test; format: cell-based; conditions: 24 h, 37° C.
Procedure: as §4

[11] = tested on: Trichophyton mentagrophytes; test: Minimum bactericidal concentration test; format: cell-based; conditions: 96 h, 25° C.
Procedure: as §4

[12] = tested on: mold (filamentous fungus); test: Evaluation of antiseptic activity in thickener solution; format: cell-based; conditions: 0.1% in 3.5% Carbopol ETD2020 aqueous solution, 25° C.
Procedure: In order to check the antiseptic performance of ozonized surfactants, the ozonized surfactants were added to a substance susceptible to mold. […] Into a 100 mL-glass bottle, 50 mL of the sample was charged. The bottles were kept at 25° C. in a thermostatic air chamber, and temporal changes were visually observed. […] The mold-like material was removed and examined under a 700-power microscope. As a result, spores were detected and the material was identified as a filamentous fungus. The above results confirmed the antiseptic activity of the ozonized surfactants.

insects such as ants = test: Repellent activity (Test Example 14); format: in vivo, pill bug; conditions: 8 hours
Procedure: The repellent performance of the ozonized surfactant of the present invention was checked. […] In addition, 1 g of honey was instilled into the center. […] These specimens were placed on leaf mold in a flower bed, and the conditions were observed 8 hours later.

Which results are given for “Ozonized POE (10 EO) oleyl ether [Example 4]”?
percentage of oxidizing property measured after 700 days to that measured just after preparation [1]: 101%; Minimum inhibitory concentration [2]: 0.09%; Minimum inhibitory concentration (Escherichia coli [3]): 0.25%; Minimum inhibitory concentration (Saccharomyces cerevisiae [4]): 0.02%; Minimum inhibitory concentration (Staphylococcus aureus [5]): 0.11%; Minimum inhibitory concentration [6]: 0.03%; Minimum bactericidal concentration [7]: 0.18%; Minimum bactericidal concentration (Escherichia coli [8]): 0.30%; Minimum bactericidal concentration (Saccharomyces cerevisiae [9]): 0.03%; Minimum bactericidal concentration (Staphylococcus aureus [10]): 0.11%; Minimum bactericidal concentration [11]: 0.03%; Antiseptic activity of thickener soln. (visually observed), 1 month after [12]: Good; Antiseptic activity of thickener soln. (visually observed), 1 week after [12]: Good; insects gathered on the specimen (insects such as ants; 2 mL of 1% aqueous solution on tissue paper with 1 g honey): did not gather at all; insects gathered on the specimen (insects such as ants; 2 mL of 10% aqueous solution on tissue paper with 1 g honey): did not gather at all
